In patent publication US9517989B2, “2-cycloalkyl resorcinol cannabinergic ligands” (priority 2012, dated 2016):
Like-named read-outs stand apart in the source and are kept apart here.

How the values were obtained:
C57BL6/J mice = experiment: Analgesia assay (tail immersion / tail withdrawal test); assay type: in vivo
Description: Some of the disclosed compounds were tested in vivo using two well defined rodent assays for cannabinergic activity, the analgesia and the hypothermia assays. The analgesia assay (tail immersion test) determines the ability of the test compound to activate cannabinergic signaling, through modulation of cannabinoid receptors, and thereby reduce nociceptive pain. The hypothermia test determines the ability of a test compound to act as a central CB1 agonist and decrease the body temperature. […] The details of both assays are described below.
C57BL6/J mice (Jackson Laboratories, Bar Harbor Me.) were single housed at least 1 h before start of experiment. Food and water are removed immediately before the first injection.
Route of administration=i.p. Volume=1 mL/100 g body weight.
Tail withdrawal test: 52° C. water bath (use bags). • a. Bag is made of stapled surgery sheets to form a small pocket the size of a mouse. • b. […] The tip of the mouse's tail is dipped into the warm water, with 1 cm submerged. • d. […] B. Hypothermia Assay

CB2 = CB2 (Homo sapiens, UniProt P34972); experiment: cyclic adenosine monophosphate (cAMP) assay at CB2; assay type: cell-based; conditions: for Emax: read-out: % Efficacy; for EC50: read-out: Functional Potency (EC50)
Description: (§1) Functional characterization of some of the disclosed compounds was performed by using the cyclic adenosine monophosphate (cAMP) assay. The functional potency of the compound is represented by the EC50 value. The lower the EC50 value, the higher the functional potency. A detailed description of the cyclic adenosine monophosphate (cAMP) assay is given in Nikas et al. J. Med. Chem. (2010) 6996.

CB1 [1] = molecular target: T1, CB1 (Rattus norvegicus, UniProt P20272); experiment: cyclic adenosine monophosphate (cAMP) assay at CB1; assay type: cell-based; conditions: for Emax: read-out: % Efficacy; for EC50: read-out: Functional Potency (EC50)
Description: as §1

CB2 receptor = CB2 receptor (UniProt P47936); experiment: CB2 receptor binding affinity (Ki); conditions: read-out: CB2 receptor Ki
Description: Some disclosed compounds were tested for CB1 and CB2 receptor binding affinity (Tables 1, 2, 3, 4, 5, 6). As used herein “binding affinity” is represented by the Ki value. The Ki value is the affinity constant and describes the affinity of the compound for the receptor. The lower the Ki value, the higher the affinity of the compound for the receptor. A detailed description of the methods used to test “binding affinity” of compounds is given in Makriyannis, et al., US 2007, 0135388 and in Papahatjis, et al. J. Med. Chem. (2007) 4048, the content of each of which is hereby incorporated by reference.

CB1 [2] = molecular target: T1, CB1; experiment: CB1 receptor binding affinity (Ki)
Description: Some disclosed compounds were tested for CB1 and CB2 receptor binding affinity (Tables 1, 2, 3, 4, 5, 6). As used herein “binding affinity” is represented by the Ki value. The Ki value is the affinity constant and describes the affinity of the compound for the receptor. […] A detailed description of the methods used to test “binding affinity” of compounds is given in Makriyannis, et al., US 2007, 0135388 and in Papahatjis, et al. J. Med. Chem. (2007) 4048, the content of each of which is hereby incorporated by reference.

Sequence of CB2 (P34972 whole entry, species assumed): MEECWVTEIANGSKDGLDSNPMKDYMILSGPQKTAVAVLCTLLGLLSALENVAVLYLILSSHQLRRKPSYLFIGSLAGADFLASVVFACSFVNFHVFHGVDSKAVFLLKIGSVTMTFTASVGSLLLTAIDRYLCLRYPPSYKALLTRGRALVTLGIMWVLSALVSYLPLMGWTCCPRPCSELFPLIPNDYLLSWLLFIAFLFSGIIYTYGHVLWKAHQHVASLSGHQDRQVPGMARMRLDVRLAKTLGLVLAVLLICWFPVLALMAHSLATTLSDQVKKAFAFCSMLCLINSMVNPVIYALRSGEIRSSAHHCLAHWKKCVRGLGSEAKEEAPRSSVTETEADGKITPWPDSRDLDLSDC
T1 sequence (P20272 whole entry): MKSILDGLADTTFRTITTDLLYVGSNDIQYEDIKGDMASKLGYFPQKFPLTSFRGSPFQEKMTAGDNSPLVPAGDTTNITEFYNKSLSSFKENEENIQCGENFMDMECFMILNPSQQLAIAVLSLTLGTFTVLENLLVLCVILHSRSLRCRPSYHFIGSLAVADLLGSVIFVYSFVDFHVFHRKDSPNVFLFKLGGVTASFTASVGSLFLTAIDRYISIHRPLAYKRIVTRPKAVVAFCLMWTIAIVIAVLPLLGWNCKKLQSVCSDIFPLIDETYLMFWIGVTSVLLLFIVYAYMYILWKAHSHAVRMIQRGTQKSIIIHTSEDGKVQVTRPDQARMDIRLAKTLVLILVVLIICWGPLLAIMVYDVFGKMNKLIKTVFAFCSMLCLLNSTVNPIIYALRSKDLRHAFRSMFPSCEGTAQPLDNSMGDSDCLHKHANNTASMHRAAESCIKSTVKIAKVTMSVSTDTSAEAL

Row | Compound | Ki (CB2 receptor) | Ki (CB1 [2]) | further results
1 | (−)-Δ^9-tetrahydrocannabinol [(−)-Δ^9-THC, reference compound] | – | – | potency in the analgesia assay relative to compound 41 (times less potent) (C57BL6/J mice; same test as compound 41): approximately 10 times
2 | CCCCCCC1(c2cc(O)c([C@H]3C=C(C)[C@H]4C[C@@H]3C4(C)C)c(O)c2)SCCS1 [Compound 40.6, (+)-2-[(1R,4S,5S)-2,6,6-trimethylbicylco[3.1.1]hept-2-en-4-yl]-5-(2-hexyl-1,3-dithiolane-2-yl)resorcinol] | 7.9 nM | 19.2 nM | Functional Activity (CB2): Partial agonist at CB2; Emax (CB2): 38%; EC50 (CB2): 8.7 nM; Functional Activity (CB1 [1]): Partial agonist at CB1; Emax (CB1 [1]): 38%; EC50 (CB1 [1]): 21 nM
3 | CC1=C[C@H](c2c(O)cc(C3(CCCCCC#N)CCCC3)cc2O)[C@@H]2C[C@H]1C2(C)C [Compound 41, (+)-2-[(1R,4S,5S)-2,6,6-trimethylbicylco[3.1.1]hept-2-en-4-yl]-5-[(5-cyanopentyl)cyclopentyl]resorcinol] | 0.8 nM | 2.6 nM | antinociception (analgesia) (C57BL6/J mice; dose of 3 mg/Kg, FIG. 1): maximum possible effect
4 | C=C(C)[C@H]1CCC(CO)=C[C@@H]1c1c(O)cc(C2(CCCCCC)CCCC2)cc1O [Compound 4.4, 2-[(1S,6S)-3-(Hydroxymethyl)-6-(1-methylethenyl)-2-cyclohexen-1-yl]-5-(1-hexyl-cyclopentyl)resorcinol] | 16 nM | 78 nM | Functional Activity (CB1 [1]): Agonist at CB1; Emax (CB1 [1]): 81%; EC50 (CB1 [1]): 17 nM
5 | 2-[(1S,6S)-3-(Hydroxymethyl)-6-(1-methylethenyl)-2-cyclohexen-1-yl]-5-(6-morpholino-2-methylhexane-2-yl)-1,3-dimethoxy-benzene [Compound 74] | 16 nM | – | % Efficacy (CB2): 28%; Functional Activity (CB2): Partial agonist at CB2; EC50 (CB2): 6.7 nM; % Efficacy (CB1 [1]): 51%; Functional Activity (CB1 [1]): Agonist at CB1; EC50 (CB1 [1]): 50.4 nM; Ki (CB1 [2]; read-out: CB1 receptor Ki): 70 nM
6 | C=C(C)[C@H]1CCC(CO)=C[C@@H]1c1c(O)cc(C2(CCCCCC#N)CCC2)cc1O [Compound 34, 2-[(1S,6S)-3-(Hydroxymethyl)-6-(1-methylethenyl)-2-cyclohexen-1-yl]-5-[(5-cyanopentyl)cyclobutyl]resorcinol] | 5.5 nM | 20 nM | Functional Activity (CB1 [1]): Agonist at CB1; Emax (CB1 [1]): 83%; EC50 (CB1 [1]): 3.2 nM
7 | C=C(C)[C@H]1CCC(CO)=C[C@@H]1c1c(O)cc(C2(CCCCCC)CC2)cc1O [Compound 4.3, 2-[(1S,6S)-3-(Hydroxymethyl)-6-(1-methylethenyl)-2-cyclohexen-1-yl]-5-(1-hexyl-cyclopropyl)resorcinol] | 14 nM | 16 nM | Functional Activity (CB2): Partial agonist at CB2; Emax (CB2): 35%; EC50 (CB2): 12 nM; Functional Activity (CB1 [1]): Agonist at CB1; Emax (CB1 [1]): 58%; EC50 (CB1 [1]): 1.6 nM
8 | C=C(C)[C@H]1CCC(COC(C)=O)=C[C@@H]1c1c(O)cc(C(C)(C)CCCCCC)cc1O [Compound 3.2, 2-[(1S,6S)-3-(Acetoxymethyl)-6-(1-methylethenyl)-2-cyclohexen-1-yl]-5-(1,1-dimethylheptyl)resorcinol] | 62 nM | 69 nM | –
9 | C=C(C)[C@H]1CCC(CO)=C[C@@H]1c1c(O)cc(C2(CCCCCN=[N+]=[N-])CCC2)cc1O [Compound 37, 2-[(1S,6S)-3-(Hydroxymethyl)-6-(1-methylethenyl)-2-cyclohexen-1-yl]-5-[(5-azidopentyl)cyclobutyl)resorcinol] | 7.2 nM | 22 nM | –
10 | C=C(C)[C@H]1CCC(COC(C)=O)=C[C@@H]1c1c(O)cc(C23CC4CC(CC(C4)C2)C3)cc1O [Compound 3.9, 2-[(1S,6S)-3-(Acetoxymethyl)-6-(1-methylethenyl)-2-cyclohexen-1-yl]-5-(1-adamantyl)resorcinol] | 135 nM | 185 nM | –
11 | C=C(C)[C@H]1CCC(CO)=C[C@@H]1c1c(O)cc(C2(CCCCCBr)CCC2)cc1O [Compound 4.8, 2-[(1S,6S)-3-(Hydroxymethyl)-6-(1-methylethenyl)-2-cyclohexen-1-yl]-5-[(5-bromopentyl)cyclobutyl)resorcinol] | 11 nM | 14 nM | –
12 | C=C(C)[C@H]1CCC(COC(C)=O)=C[C@@H]1c1c(O)cc(C(C)(C)CCCCCBr)cc1O [Compound 3.12, 2-[(1S,6S)-3-(Acetoxymethyl)-6-(1-methylethenyl)-2-cyclohexen-1-yl]-5-(7-bromo-2-methylheptan-2-yl)resorcinol] | 27 nM | 29 nM | –
13 | C=C(C)[C@@H]1CC[C@@H](N2CCOCC2)C[C@H]1c1c(O)cc(C(C)(C)CCCCCC)cc1O [Compound 62, (1R,3R,4R)-3-[4-(1′,1′-Dimethylheptyl)-2,6-dihydroxyphenyl]-4-isopropenyl-1-morpholinylcyclohexane] | 14 nM | 69 nM | –
14 | CCCCCc1cc(O)c([C@@H]2C=C(C)[C@@H]3C[C@H]2C3(C)C)c(O)c1 [Compound 43.1, (−)-2-[(1S,4R,5R)-2,6,6-trimethylbicyclo[3.1.1]hept-2-en-4-yl]-5-pentyl-resorcinol, reference compound] | 565 nM | 837 nM | –
15 | C=C(C)[C@H]1CCC(COC(C)=O)=C[C@@H]1c1c(O)cc(C2(CCCCCC)CC2)cc1O [Compound 3.3, 2-[(1S,6S)-3-(Acetoxymethyl)-6-(1-methylethenyl)-2-cyclohexen-1-yl]-5-(1-hexyl-cyclopropyl)resorcinol] | 105 nM | 88 nM | –
16 | CCCCCCC1(c2cc(O)c([C@H]3C=C(C)[C@H]4C[C@@H]3C4(C)C)c(O)c2)CCCC1 [Compound 40.4, (+)-2-[(1R,4S,5S)-2,6,6-trimethylbicylco[3.1.1]hept-2-en-4-yl]-5-(1-hexyl-1-cyclopentyl)resorcinol] | 17 nM | 23 nM | –
17 | C=C(C)[C@H]1CCC(COC(C)=O)=C[C@@H]1c1c(O)cc(C(C)(C)CCCBr)cc1O [Compound 3.10, 2-[(1S,6S)-3-(Acetoxymethyl)-6-(1-methylethenyl)-2-cyclohexen-1-yl]-5-(5-bromo-2-methypentan-2-yl)resorcinol] | 14 nM | 620 nM | –
18 | CCCC/C=C\C1(c2cc(O)c([C@@H]3C=C(C)[C@@H]4C[C@H]3C4(C)C)c(O)c2)CCCC1 [Compound 43.5, (−)-2-[(1S,4R,5R)-2,6,6-trimethylbicyclo[3.1.1]hept-2-en-4-yl]-5-[1-(1,2-cis-hexen-1-yl)-cycolpentyl-1-yl]resorcinol] | 29 nM | 45 nM | –
19 | CC1=C[C@H](c2c(O)cc(C3(CCCCCBr)CCCC3)cc2O)[C@@H]2C[C@H]1C2(C)C [Compound 40.7, (+)-2-[(1R,4S,5S)-2,6,6-trimethylbicylco[3.1.1]hept-2-en-4-yl]-5-[(5-bromopentyl)cyclopentyl]resorcinol] | 4.7 nM | 6.4 nM | –
20 | C=C(C)[C@H]1CCC(COC(C)=O)=C[C@@H]1c1c(O)cc(C2(CCCCCC#N)CCC2)cc1O [Compound 33, 2-[(1S,6S)-3-(Acetoxymethyl)-6-(1-methylethenyl)-2-cyclohexen-1-yl]-5-[(5-cyanopentyl)cyclobutyl)resorcinol] | 15 nM | 65 nM | –
21 | C=C(C)[C@H]1CCC(CO)=C[C@@H]1c1c(O)cc(C2(CCCCCC)SCCS2)cc1O [Compound 4.6, 2-[(1S,6S)-3-(Hydroxymethyl)-6-(1-methylethenyl)-2-cyclohexen-1-yl]-5-(2-hexyl-1,3-dithiolane-2-yl)resorcinol] | 28 nM | 71 nM | Functional Activity (CB1 [1]): Agonist at CB1; Emax (CB1 [1]): 84%; EC50 (CB1 [1]): 267 nM
